Experimental findings from BindingDB's records for patent US11472811 (BEIGENE, LTD., 2022) are described below.

The assay addresses Adenosine receptor A2a (Homo sapiens, UniProt P29274). As to the kind of experiment: Luciferase Reporter Assay. The procedure: HEK293-A2AR-luc2p/CRE/Hygro cells were seeded at a density of 5,000 cells/well in DMEM with 1% FBS and 1 U/mL adenosine deaminase (ADA) (Sigma). After 18 h, the cells were treated with 3 nM CGS21680 plus a series dilution of A2AR antagonist, the compounds disclosed herein at the concentration of 0.1 10000 nM, prepared in DMEM with 1% FBS. After 5 h incubation, the luciferase activity in cells were measured using the Bright-Glo Luciferase Assay System (Promega) according to manufacturer's instructions. The luminescence signal was measured using a PHERAstar FS plate reader (BMG Labtech). […] Maximal luminescence intensity was determined in the presence of 3 nM CGS21680 and was set as 100%. The IC50 value was calculated from a dose dependent inhibition curve across the range of compound concentrations.
For orientation: In a reporter assay the amount or activity of a reporter protein is the signal.

What is called IC50 is the midpoint of a concentration-inhibition curve. Low readings indicate greater potency, high ones weaker potency.

Sequence of Adenosine receptor A2a (P29274 whole entry): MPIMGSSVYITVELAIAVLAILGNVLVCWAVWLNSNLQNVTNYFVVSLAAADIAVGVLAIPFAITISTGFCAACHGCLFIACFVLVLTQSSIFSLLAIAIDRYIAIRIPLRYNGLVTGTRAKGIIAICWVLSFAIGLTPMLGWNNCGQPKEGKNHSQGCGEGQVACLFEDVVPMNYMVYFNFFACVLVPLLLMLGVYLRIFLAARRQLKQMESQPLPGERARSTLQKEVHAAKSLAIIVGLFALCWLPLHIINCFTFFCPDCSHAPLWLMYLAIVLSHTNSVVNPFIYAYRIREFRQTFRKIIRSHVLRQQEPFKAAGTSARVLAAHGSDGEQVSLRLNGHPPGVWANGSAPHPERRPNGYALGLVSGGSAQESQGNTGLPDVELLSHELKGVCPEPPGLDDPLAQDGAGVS

On to `C[C@@](C(=O)O)(c1ccccc1)n1ncc2c1nc(N)n1nc(-c3ccco3)nc21` [US11472811, Example Intermediate-Ia], for which half-maximal inhibition (IC50) required 194 nM.
